{
  "source": "paper PMC10539329",
  "about": "“NLRP6 potentiates PI3K/AKT signalling by promoting autophagic degradation of p85α to drive tumorigenesis” (Nature Communications, 2023)",
  "key": {"[1]": {"system": "NLRP6/p85α interaction", "test": "Competitive ELISA, NLRP6 binding to p85α", "type": "biochemical", "details": "10 μM peptide (PepC +, Pep9 ++), 1 h", "description": "DNA encoding full-length NLRP6 was codon optimized and chemically synthesized by Genewiz (Soochow, China). The DNA sequence was subcloned into NdeI-XhoI sites of a pDB-His-MBP vector (kindly given by Pro. Chenggui Han, China Agricultural University, Beijing, China). Recombinant NLRP6 protein was expressed and purified following previous reports, with slight modifications. Briefly, the protein was expressed in E. coli (DE3) at 16 °C with 0.5 mM IPTG induction overnight. Then, the protein was purified by Ni affinity and gel filtration chromatography. The p85α WT and p85α mutant sequences were chemically synthesized and subcloned into BamHI-XhoI sites of a pGEX-6P-1 plasmid by GenScript (Nanjing, China). The E. coli (DE3) transformed with the plasmids were grown in LB medium at 37 °C. The culture medium was supplemented with 0.5 mM IPTG followed by incubation at 16 °C for 16–18 h. The proteins were purified by glutathione-affinity chromatography (Smart-Life Sciences, Changzhou, China) followed by gel filtration chromatography (Cytiva, MA, USA) using PBS. The protein extinction coefficient was calculated by ProtParam, and the protein concentration was determined by the ultraviolet spectrophotometry method.\nThe 96-well plate was coated with bovine serum albumin (BSA) or purified NLRP6. HRP-conjugated PepC or HRP-conjugated Pep9 was incubated with BSA or NLRP6 for 1 h, and the unbound peptide was washed away. The HRP substrate was added, and the absorbance was detected at 450 nm. For the competitive ELISA, the 96-well plate was coated with purified p85α. The binding of NLRP6 to p85α competed with 10 μM PepC or 5 μM, 10 μM, 20 μM Pep9 for 1 h."}, "[2]": {"system": "LN229 cells", "test": "Cell proliferation / viability assay, LN229", "type": "cell-based, Human", "details": "TAT-peptide", "description": "Cells were seeded into 12-well plates at a density of 1 × 10^4 cells per well. Manual cell counting was carried out at the indicated times using trypan blue and a haemocytometer.\nTo determine the antitumour effect of the peptide in vitro, the peptide was incubated with cells for 24 h when the cells were grown to approximately 80% confluence. Cell viability was measured at the indicated time points. The cell lysates were collected for immunoprecipitation as described above. To determine the antitumour effect of the peptide in vivo, the peptide was stereotactically injected using identical coordinates of tumour implantation in 3 μl of PBS. Briefly, 3 weeks after intracranial tumour cell implantation, mice with similar tumour sizes and similar weights were selected and randomly arranged into five groups (n = 6): PBS, PepC (0.25 mg/kg TAT-PepC per injection), Pep9 low dose (Pep9 L, 0.05 mg/kg TAT-Pep9 per injection), Pep9 medium dose (Pep9 M, 0.1 mg/kg TAT-Pep9 per injection), and Pep9 high dose (Pep9 H, 0.25 mg/kg TAT-Pep9 per injection). Each mouse received intratumoural injection every 10 days (at Day 21, Day 31, Day 41, and Day 51), and tumour growth was monitored at Day 21, Day 41, and Day 56. The experiment was terminated at Day 80, and all the mice (if they were alive) were sacrificed as previously described."}},
  "data": [
    {"sequence": "SAEGYQYRALYD [Pep1, peptide found on the p85α SH3 domain; selected as the control named PepC]", "values": [
      {"measurement": "ELISA value (NLRP6 binding to p85α)", "setting": "[1]; replicate 1, no peptide 2.20", "value": 1.90},
      {"measurement": "ELISA value (NLRP6 binding to p85α)", "setting": "[1]; replicate 2, no peptide 2.10", "value": 2.05},
      {"measurement": "ELISA value (NLRP6 binding to p85α)", "setting": "[1]; replicate 3, no peptide 2.45", "value": 1.80},
      {"measurement": "Relative cell viability", "setting": "[2]; concentration 5 (unit not given), replicate 1", "value": 0.87},
      {"measurement": "Relative cell viability", "setting": "[2]; concentration 5 (unit not given), replicate 2", "value": 0.87},
      {"measurement": "Relative cell viability", "setting": "[2]; concentration 5 (unit not given), replicate 3", "value": 0.99},
      {"measurement": "Relative cell viability", "setting": "[2]; concentration 10 (unit not given), replicate 1", "value": 1.05},
      {"measurement": "Relative cell viability", "setting": "[2]; concentration 10 (unit not given), replicate 2", "value": 0.89},
      {"measurement": "Relative cell viability", "setting": "[2]; concentration 10 (unit not given), replicate 3", "value": 0.97},
      {"measurement": "Relative cell viability", "setting": "[2]; concentration 20 (unit not given), replicate 1", "value": 0.94},
      {"measurement": "Relative cell viability", "setting": "[2]; concentration 20 (unit not given), replicate 2", "value": 0.96},
      {"measurement": "Relative cell viability", "setting": "[2]; concentration 20 (unit not given), replicate 3", "value": 1.01},
      {"measurement": "Relative cell viability", "setting": "[2]; concentration 30 (unit not given), replicate 1", "value": 0.95},
      {"measurement": "Relative cell viability", "setting": "[2]; concentration 30 (unit not given), replicate 2", "value": 0.96},
      {"measurement": "Relative cell viability", "setting": "[2]; concentration 30 (unit not given), replicate 3", "value": 1.02}
    ]}
  ]
}
